These results are taken from patent US10322097B2, “Treatment of subjects with multidrug-resistant cancer” (priority 2015, dated 2019).

Data set [1] has as its target P-gp (Homo sapiens, UniProt P08183). As to the kind of experiment: Rho123 efflux assay in A549 taxol-resistant lung cancer cells (flow cytometry). The method, then: A549 taxol-resistant lung cancer cells were seeded in 6 well-plates at a final concentration of 2×10^5 cells per well and cultured for 24 h at 37° C. in an atmosphere containing 5% CO2. […] Subsequently, 5 mg/mL Rho123 was added to each well and the wells were incubated for another 1 h at 37° C. At the end of the incubation, the accumulation of Rho123 was stopped by washing the cells five times with ice-cold PBS. After cell centrifugation, cell pellets were resuspended in 400 μL PBS. […] All data acquisition and analyses were performed with CellQuest (BD Biosciences, San Jose, Calif., USA) in triplicate in three independent experiments, and the results were shown as the mean of fluorescence intensity.
A549 taxol-resistant lung cancer cells were seeded in 6 well-plates at a final concentration of 2×10^5 cells per well and cultured for 24 h at 37° C. in an atmosphere containing 5% CO2. […] All data acquisition and analyses were performed with CellQuest (BD Biosciences, San Jose, Calif., USA) in triplicate in three independent experiments, and the results were shown as the mean of fluorescence intensity.
(Flow cytometry measures light scatter and fluorescence of single cells or particles in a stream.)

Data set [2] relates to HCT116 p53+/+ colon cancer cells. As to the kind of experiment: MTT cytotoxicity assay, HCT116 p53+/+. Type of data set: cell-based. Conditions: Homo sapiens, HCT-116, 72 h, read-out: IC50 HCT116 p53+/+ colon cancer cells. Here is the method:
(§1) Cell cultures and cytotoxicity assays have been used. Celastrol was dissolved in DMSO at a final concentration of 100 mmol/L and stored at −20° C. Cytotoxicity was assessed using the 3-(4,5-dimethylthiazol-2-yl)-2,5-diphenyltetrazolium bromide assay. 4000 cells from HCT116 p53^+/+ or p53^−/− colon cancer cells and DLD-1 Bax-Bak^+/+ or Bax-Bak^−/− colon cancer cells were seeded on 96-well plates per well. […] Subsequently, 10 μL of MTT reagents were added to each well and incubated at 37° C. for 4 hours followed by the addition of 100 μL solubilization buffer (10% SDS in 0.01 mol/L HCl) and overnight incubation. […] The percentage of cell viability was calculated using the following formula: Cell viability (%)=Cells number treated/Cells number DMSO control×100. Data were obtained from three independent experiments.
In general terms: Formazan colour is commonly taken as a measure of viable cells.

For data set [3], the system named is HCT116 p53-/- colon cancer cells. Kind of data set: MTT cytotoxicity assay, HCT116 p53-/-. Type of data set: cell-based. The method, then: as §1
Data set [4] concerns A2780 (Ovary) taxol sensitive cancer cells. As to the kind of experiment: MTT cytotoxicity assay, A2780 taxol sensitive. Type of data set: cell-based. Conditions: Homo sapiens, A2780, 72 h, read-out: IC50 A2780 (Ovary) (Taxol sensitive). The method, then:
(§2) Cell cultures and cytotoxicity assays have been used. Celastrol was dissolved in DMSO at a final concentration of 100 mmol/L and stored at −20° C. Cytotoxicity was assessed using the 3-(4,5-dimethylthiazol-2-yl)-2,5-diphenyltetrazolium bromide assay. 4000 cells from A549 (lung), A2780 (ovary), HCT-8 (colon) and MCF-7 (breast) cancer cells were seeded on 96-well plates per well. After overnight pre-incubation, the cells were exposed to different concentrations of celastrol (0.039-100 μmol/L) or taxol for 3 days. Subsequently, 10 μL of MTT reagents was added to each well and incubated at 37° C. for 4 hours followed by the addition of 100 μL solubilization buffer (10% SDS in 0.01 mol/L HCl) and overnight incubation. Absorbance at 585 nm was determined from each well the next day. The percentage of cell viability was calculated using the following formula: Cell viability (%)=Cells number treated/Cells number DMSO control×100. Data were obtained from three independent experiments.

For data set [5], the system named is MCF-7 (Breast) taxol sensitive cancer cells. As to the kind of experiment: MTT cytotoxicity assay, MCF-7 taxol sensitive. Type of data set: cell-based. Conditions: Homo sapiens, MCF7, 72 h, read-out: IC50 MCF-7 (Breast) (Taxol sensitive). The method, then: as §2
Data set [6] concerns MCF-7 (Breast) doxorubicin resistant cancer cells. As to the kind of experiment: MTT cytotoxicity assay, MCF-7 doxorubicin resistant. Type of data set: cell-based, human. The method, then: as §2, with “from” for “from A549 (lung), A2780 (ovary), HCT-8 (colon) and”, “MCF-7 doxorubicin sensitive/resistant breast” for “MCF-7 (breast)”, “cancer cells or CEM doxorubicin sensitive/resistant leukemia” for “cancer”, “or doxorubicin” for “or taxol”, “reagents were” for “reagents was”

Data set [7] concerns CEM-ADR5000 (Leukemia) doxorubicin resistant cells. Kind of data set: MTT cytotoxicity assay, CEM-ADR5000. Type of data set: cell-based, human. The method, then:
as §2, with “from” for “from A549 (lung), A2780 (ovary), HCT-8 (colon) and”, “MCF-7 doxorubicin sensitive/resistant breast” for “MCF-7 (breast)”, “cancer cells or CEM doxorubicin sensitive/resistant leukemia” for “cancer”, “or doxorubicin” for “or taxol”, “reagents were” for “reagents was”

The test system of data set [8] is SGC-7901 (Gastric) cisplatin resistant cancer cells. As to the kind of experiment: MTT cytotoxicity assay, SGC-7901 cisplatin resistant. Type of data set: cell-based, human. Here is the method: as §2, with “from” for “from A549 (lung),”, “A2780 cisplatin sensitive/resistant ovarian cancer cells or SGC-7901 cisplatin sensitive/resistant gastric” for “A2780 (ovary), HCT-8 (colon) and MCF-7 (breast)”, “or cisplatin” for “or taxol”, “reagents were” for “reagents was”

Sequence of P-gp (P08183 whole entry): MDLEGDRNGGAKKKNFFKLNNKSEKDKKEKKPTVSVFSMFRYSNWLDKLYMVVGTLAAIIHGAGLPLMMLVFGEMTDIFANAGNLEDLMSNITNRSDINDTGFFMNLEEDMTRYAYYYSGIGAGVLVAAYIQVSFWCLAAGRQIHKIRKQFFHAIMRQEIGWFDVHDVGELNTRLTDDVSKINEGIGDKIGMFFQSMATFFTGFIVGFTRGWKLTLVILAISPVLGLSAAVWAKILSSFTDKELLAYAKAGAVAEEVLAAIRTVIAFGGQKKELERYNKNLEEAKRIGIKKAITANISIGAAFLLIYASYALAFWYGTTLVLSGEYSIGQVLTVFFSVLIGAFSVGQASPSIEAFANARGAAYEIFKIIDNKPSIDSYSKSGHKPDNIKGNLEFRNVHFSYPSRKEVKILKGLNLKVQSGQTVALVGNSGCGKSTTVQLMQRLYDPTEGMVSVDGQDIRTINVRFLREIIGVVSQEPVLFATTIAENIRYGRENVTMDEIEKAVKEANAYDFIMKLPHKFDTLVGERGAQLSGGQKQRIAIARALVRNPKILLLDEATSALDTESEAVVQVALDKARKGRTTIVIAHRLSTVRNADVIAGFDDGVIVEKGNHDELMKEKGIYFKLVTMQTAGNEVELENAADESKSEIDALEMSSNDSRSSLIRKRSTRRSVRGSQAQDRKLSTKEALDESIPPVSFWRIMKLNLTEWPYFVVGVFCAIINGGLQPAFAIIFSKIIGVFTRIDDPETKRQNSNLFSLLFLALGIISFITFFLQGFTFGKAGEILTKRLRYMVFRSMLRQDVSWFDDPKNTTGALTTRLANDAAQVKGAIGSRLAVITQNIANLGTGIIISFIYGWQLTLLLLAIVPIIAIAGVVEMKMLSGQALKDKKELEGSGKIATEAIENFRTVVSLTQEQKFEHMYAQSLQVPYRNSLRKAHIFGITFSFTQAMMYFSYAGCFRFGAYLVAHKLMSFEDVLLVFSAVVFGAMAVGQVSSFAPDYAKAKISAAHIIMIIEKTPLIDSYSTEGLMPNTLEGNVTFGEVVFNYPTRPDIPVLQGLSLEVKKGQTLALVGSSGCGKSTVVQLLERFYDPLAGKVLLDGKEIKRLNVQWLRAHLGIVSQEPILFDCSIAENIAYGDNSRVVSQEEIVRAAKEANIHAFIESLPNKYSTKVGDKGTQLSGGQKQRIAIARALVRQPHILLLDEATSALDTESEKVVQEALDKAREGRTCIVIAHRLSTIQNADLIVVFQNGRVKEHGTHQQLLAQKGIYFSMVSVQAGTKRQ

As for `CC1=C(O)C(=O)C=C2C1=CC=C1[C@@]2(C)CC[C@@]2(C)[C@@H]3C[C@](C)(C(=O)O)CC[C@]3(C)CC[C@]12C` [Celastrol, celastrol], in data set [1], the “P-gp activity / Rho123 accumulation (Example 2)” value is recorded as “inhibited the P-gp activity dose-dependently”. For the same molecule, in data set [1], the “P-gp activity / Rho123 accumulation (Example 9)” value is recorded as “inhibited the P-gp activity dose-dependently”. In addition, the IC50 worked out at 831 nM in data set [2]; 484 nM in data set [3] (Homo sapiens, HCT-116, 72 h, read-out: IC50 HCT116 p53-/- colon cancer cells); 902 nM in data set [4]; 1120 nM in data set [5]; 950 nM in data set [6] (Homo sapiens, MCF7, 72 h, read-out: IC50 MCF-7 (Breast) (Doxorubicin resistant)); 108 nM in data set [7] (Homo sapiens, 72 h, MTT, 3 days). For the same molecule, the IC50 in data set [8] (Homo sapiens, SGC-7901, 72 h, read-out: IC50 SGC-7901 (Gastric) (Cisplatin resistant)) came out at 1720 nM. Also, the “Resistant Factor” value in data set [3] (IC50 HCT116 p53-/- divided by IC50 HCT116 p53+/+) is 0.58; in data set [6] (MCF-7 doxorubicin resistant versus doxorubicin sensitive) it was 0.84; in data set [7] (CEM-ADR5000 versus CCRF-CEM), 0.033; in data set [8] (SGC-7901 cisplatin resistant versus cisplatin sensitive), 0.88.
